In the test the target is DDA1-DDB1ΔB-DCAF15Δpro triplex with R1R2 of RBM39 (Homo sapiens, UniProt Q14498+Q66K64, Q66K64:DEL276-383). In words: TR-FRET, SPLAM-induced ternary complex formation, Eu-anti-His and APC-anti-FLAG. It is filed as binding. A general note: TR-FRET usually uses a lanthanide donor and a delayed reading to cut background.

Broadly, the EC50 is the midpoint of the concentration-response curve. The low end stands for an effect from little substance, the high end for a need for much substance.

As for `NS(=O)(=O)c1ccc(S(=O)(=O)Nc2cccc3c(Cl)c[nH]c23)cc1` [indisulam], the EC50 came to 5 nM.

For the origin of these results see paper doi:10.1101/758409v1 (biorxiv, 2019).
